Laboratory results as given in ChEMBL document CHEMBL1122322, “Synthesis and antileishmanial activity of 6-methoxy-4-methyl-N-[6-(substituted-1-piperazinyl)hexyl]-8-quinolinamines and related compounds” (1983).
The source made the active and inactive calls. No cut-off for these calls is given here.

Experiments:
[1] = test system: Leishmania donovani; test: Antileishmanial activity against Leishmania donovani infections in hamsters (0.81 mg/kg); type: functional
[2] = test system: Leishmania donovani; test: Antileishmanial activity against Leishmania donovani infections in hamsters (3.25 mg/kg); type: functional
[3] = test system: Leishmania donovani; test: Antileishmanial activity against Leishmania donovani infections in hamsters (at 52 mg/kg).; type: functional
[4] = test system: Leishmania donovani; test: (§1) Antileishmanial activity against Leishmania donovani infections in hamsters (208 mg/kg); type: functional
[5] = test system: Leishmania donovani; test: Glucantime (meglumine antimoniate) index (G index) against Leishmania donovani infections in hamsters.; type: functional
[6] = test system: Leishmania donovani; test: Antileishmanial activity against Leishmania donovani infections in hamsters (at 13 mg/kg).; type: functional
[7] = test system: Leishmania donovani; test: Antileishmanial activity against Leishmania donovani infections in hamsters (0.2 mg/kg); type: functional
[8] = test system: Leishmania donovani; test: as §1; type: functional, organism-based
[9] = test system: Leishmania donovani; test: Antileishmanial activity against Leishmania donovani infections in hamsters (0.05 mg/kg); type: functional
[10] = test system: Leishmania donovani; test: Antileishmanial activity against Leishmania donovani infections in hamsters (208 mg/kg): Inactive; type: functional, organism-based

Structure (SMILES): COc1cc(NCCCCCCN2CCN(c3ccccn3)CC2)c2nccc(C)c2c1
- Suppression [1]: 18.9%
- Suppression [2]: 24.4%
- Suppression [3]: 97.8%
- Suppression [4]: 97.5%
- G index [5]: 5
- Suppression [6]: 95.9%

Structure (SMILES): COc1cc(NCCCCCCN2CC(C)NC(C)C2)c2nccc(C)c2c1 (configuration not stated)
- Suppression [7]: 1.3%
- Suppression [1]: 97.9%
- Suppression [8]: Toxic
- Suppression [2]: 99.8%
- Suppression [3]: 100%
- G index [5]: 72
- Suppression [6]: 100%

Structure (SMILES): COc1cc(NCCCCCCN2CCN(CC(O)CO)CC2)c2nccc(C)c2c1.Cl (configuration not stated)
- Suppression [7]: 25.8%
- Suppression [1]: 98.5%
- Suppression [8]: Toxic
- Suppression [2]: 99.98%
- Suppression [3]: 99.9%
- G index [5]: 57
- Suppression [6]: 100%

Structure (SMILES): CCN(CC)CCCCCCNc1cc(OC)cc2c(C)ccnc12 [SITAMAQUINE]
- Suppression [7]: 99.6%
- Suppression [1]: 100%
- Suppression [8]: Toxic
- Suppression [9]: 83.7%
- Suppression [3]: 100%
- G index [5]: 474
- Suppression [6]: 100%

Structure (SMILES): COc1cc(NCCCCCCN2CCN(C(=O)N3CCCC3)CC2)c2nccc(C)c2c1.Cl
- Suppression [1]: 4.6%
- Suppression [2]: 98.8%
- Suppression [3]: 99.8%
- Suppression [4]: 100%
- G index [5]: 2.3
- Suppression [6]: 100%

Structure (SMILES): CCNC(=O)N1CCN(CCCCCCNc2cc(OC)cc3c(C)ccnc23)CC1.Cl
- Suppression [1]: 35.9%
- Suppression [8]: Toxic
- Suppression [2]: 84.1%
- Suppression [3]: 100%
- G index [5]: 9
- Suppression [6]: 99.2%

Structure (SMILES): COc1cc(NCCCCCCN2CCN(CC(C)O)CC2)c2nccc(C)c2c1.Cl (configuration not stated)
- Suppression [7]: 75.7%
- Suppression [1]: 99.8%
- Suppression [8]: Toxic
- Suppression [2]: 99.4%
- Suppression [9]: 35%
- Suppression [3]: 99.7%
- G index [5]: 143
- Suppression [6]: 99.1%

Structure (SMILES): CCOC(=O)N1CCN(CCCCCCNc2cc(OC)cc3c(C)ccnc23)CC1
- Suppression [1]: 23.9%
- Suppression [2]: 99.1%
- Suppression [3]: 99.9%
- Suppression [4]: 99.5%
- G index [5]: 33
- Suppression [6]: 99.9%

Structure (SMILES): CCN(CC)CC(O)CN1CCN(CCCCCCNc2cc(OC)cc3c(C)ccnc23)CC1.Cl (configuration not stated)
- Suppression [8]: Toxic
- Suppression [2]: 32.6%
- Suppression [3]: 99.9%
- G index [5]: 6
- Suppression [6]: 99.7%

Structure (SMILES): COc1cc(NCCCCCCN2CCN(CCCCCCNc3cc(OC)cc4c(C)ccnc34)CC2)c2nccc(C)c2c1
- Suppression [10]: inactive

Structure (SMILES): COc1cc(NCCCCCCN2CCN(C(c3ccccc3)c3ccc(Cl)cc3)CC2)c2nccc(C)c2c1.Cl.Cl (configuration not stated)
- Suppression [1]: 70%
- Suppression [8]: Toxic
- Suppression [2]: 100%
- Suppression [3]: 96.8%
- G index [5]: 23
- Suppression [6]: 99.4%

Structure (SMILES): CCCCCCCCCCCCN1CCN(CCCCCCNc2cc(OC)cc3c(C)ccnc23)CC1
- Suppression [10]: inactive

Structure (SMILES): COc1cc(NCCCCCCN2CCN(c3ccc(Cl)c(Cl)c3)CC2)c2nccc(C)c2c1
- Suppression [4]: 77.8%
- G index [5]: <1

Structure (SMILES): CCS(=O)(=O)N1CCN(CCCCCCNc2cc(OC)cc3c(C)ccnc23)CC1
- Suppression [3]: 99.8%
- Suppression [4]: 99.9%
- G index [5]: 4
- Suppression [6]: 94.8%

Structure (SMILES): COc1cc(NCCCCCCN2CCN(CCOC(c3ccccc3)c3ccccc3)CC2)c2nccc(C)c2c1.Cl
- Suppression [3]: 99.5%
- Suppression [4]: 100%
- G index [5]: 5
- Suppression [6]: 83.5%

Structure (SMILES): COc1cc(NCCCCCCN2CCN(C(=O)N(c3ccccc3)c3ccccc3)CC2)c2nccc(C)c2c1
- Suppression [10]: inactive

Structure (SMILES): COc1cc(NCCCCCCN2CCN(CCC(C)C)CC2C)c2nccc(C)c2c1.Cl (configuration not stated)
- Suppression [7]: 57.3%
- Suppression [1]: 96.6%
- Suppression [8]: Toxic
- Suppression [2]: 100%
- Suppression [3]: 99.8%
- G index [5]: 72
- Suppression [6]: 98.9%

Structure (SMILES): COc1cc(NCCCCCCN2CCN(CCCO)CC2)c2nccc(C)c2c1
- Suppression [8]: Toxic
- Suppression [3]: 97.8%
- G index [5]: 38
- Suppression [6]: 96.3%

Structure (SMILES): COc1cc(NCCCCCCN2CCCN(C)CC2)c2nccc(C)c2c1
- Suppression [1]: 61%
- Suppression [2]: 91.2%
- Suppression [3]: 99.4%
- Suppression [4]: 98.6%
- G index [5]: 12
- Suppression [6]: 99.8%

Structure (SMILES): COc1cc(NCCCCCCN2CCN(C)CC2)c2nccc(C)c2c1.Cl
- Suppression [1]: 64.7%
- Suppression [2]: 99.3%
- Suppression [3]: 100%
- Suppression [4]: 99.7%
- G index [5]: 26
- Suppression [6]: 99.7%

Structure (SMILES): CCN(CC)CCCCCCNc1cc(OC)c(Oc2cccc(C(F)(F)F)c2)c2c(C)ccnc12
- Suppression [8]: Toxic
- Suppression [3]: 100%
- Suppression [6]: 99.6%

Structure (SMILES): COc1cc(NCCCCCCN2CC[S+]([O-])CC2)c2nccc(C)c2c1.Cl
- Suppression [8]: Toxic
- Suppression [3]: 92.8%
- G index [5]: 3
- Suppression [6]: 84.8%
